Test results as given in patent US20130029973A1, “TETRAHYDROBENZOTHIOPHENE COMPOUND” (ASTELLAS PHARMA INC., priority 2010, published 2013).

Key:
rat NPT-IIb = biological target: T1, rat NPT-IIb (Rattus norvegicus, UniProt Q9JJ09); assay: 33P phosphate uptake inhibiting action of rat NPT-IIb expressing cell; type: cell-based; conditions: HEK293; evaluation concentration 1 μM; 33P uptake in rat NPT-IIb stably expressing 293 cells; read-out: Rat NPT-IIb inhibitory rate (%)
T1 construct: rat NPT-IIb ORF was cloned into p3×FLAG-CMV-10; 3xFLAG (N); expressed in transfected cells
T1 sequence (Q9JJ09 1-695): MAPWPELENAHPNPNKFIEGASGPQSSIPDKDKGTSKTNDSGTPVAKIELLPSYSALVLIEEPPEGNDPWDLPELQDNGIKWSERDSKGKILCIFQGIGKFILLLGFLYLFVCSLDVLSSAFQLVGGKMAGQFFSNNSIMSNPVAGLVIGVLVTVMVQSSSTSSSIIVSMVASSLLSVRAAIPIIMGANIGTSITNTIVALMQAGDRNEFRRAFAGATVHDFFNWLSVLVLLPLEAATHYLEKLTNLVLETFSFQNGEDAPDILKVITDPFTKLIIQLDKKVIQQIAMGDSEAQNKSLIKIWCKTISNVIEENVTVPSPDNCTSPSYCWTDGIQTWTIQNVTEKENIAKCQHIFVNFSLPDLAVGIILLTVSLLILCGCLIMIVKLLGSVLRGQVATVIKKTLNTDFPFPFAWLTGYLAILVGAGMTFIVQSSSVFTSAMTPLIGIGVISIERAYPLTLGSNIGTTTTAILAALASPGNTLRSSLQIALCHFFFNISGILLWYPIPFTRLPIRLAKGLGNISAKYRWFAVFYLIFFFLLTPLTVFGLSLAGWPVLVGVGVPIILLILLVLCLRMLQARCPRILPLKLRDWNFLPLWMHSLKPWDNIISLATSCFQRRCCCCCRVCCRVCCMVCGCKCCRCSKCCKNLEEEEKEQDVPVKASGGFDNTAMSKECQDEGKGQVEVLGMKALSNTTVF
Description: Test Example 1: ^33P Phosphate Uptake Inhibiting Action of Rat NPT-IIb Expressing Cell
Preparation of Rat NPT-IIb Expressing Cell
Using rat small intestine cDNA library as a template, rat NPT-IIb ORF was cloned into p3×FLAG-CMV-10 by PCR according to a standard method. Then, the cloned rat NPT-IIb expressing plasmid was transfected into 293 cells, and G418 was used to obtain a rat NPT-11b-stably expressing cell line.
Evaluation System on Inhibition of Phosphate Uptake into Rat NPT-IIb Expressing Cell
The rat NPT-Hb expressing cells were seeded into a 96-well plate and incubated overnight. The medium was taken out and washed with buffer A (137 mM N-methyl-D-glucamine, 5.4 mM KCl, 2.8 mM CaCl2, 1.2 mM MgCl2, 10 mM HEPES (adjusted to pH 7.4 with HCl)), and then buffer B (137 mM NaCl, 5.4 mM KCl, 2.8 mM CaCl2, 1.2 mM MgCl2, 0.1 mM KH2PO4, 10 mM HEPES (adjusted to pH 7.4 with KOH)) was added thereto. Then, a compound having 10-fold higher concentration relative to the evaluation concentration was prepared by dilution with the buffer B and added thereto, followed by incubation in CO2 incubator. Buffer B supplemented 50 μCi/mL ^33P was added thereto, followed by further incubation in a CO2 incubator. After the reaction, the buffer was taken out and the cells were washed with buffer C (137 mM NaCl, 10 mM Tris/HCl pH 7.2). Then, Microscint-20 was added thereto and ^33P uptake was measured by using TopCount. The inhibitory rate was determined according to the following equation.
Inhibitory rate (%)=(1−(^33P uptake of drug-treated well)/(^33P uptake of DMSO-added well))×100
For several compounds of the formula (I), rat NPT-11b inhibitory activity at a pharmacological evaluation concentration of 1 μM is shown in Table 1. Here, Ex represents Example No. as denoted below (this shall apply hereinafter).

[1] = tested on: orally 32P phosphate loaded rats; assay: Blood radioactivity increase inhibiting action in orally 32P phosphate loaded rats (phosphate absorption inhibitory action); type: in vivo; conditions: Rattus norvegicus, 0.5 h; 3 mg/kg oral, male Wistar rats; from serum radioactivity AUC0-30min vs control group; read-out: Phosphate absorption inhibitory rate (%)
Method: Blood Radioactivity Increase Inhibiting Action in Orally ^32P Phosphate Loaded Rats (Phosphate Absorption Inhibitory Action)
Male Wistar rats (6 to 7 weeks old) were fasted for 24 hours and used as experimental animals. The compound was dissolved or suspended with a solvent, and was used at a concentration of 0.6 mg/mL. The compound-administered animals were forcibly orally administered with the compound at a dose of 3 mg/kg. Control-group animals were administered a solvent containing no compound at a dose of 5 mL/kg. After 5 minutes from administration of the compound or from administration of the solvent, a ^32P-containing phosphate solution (8.3 mM NaH2PO4) was orally administered thereto at a dose of 7.2 mL/kg. After 15 minutes and 30 minutes, the blood was taken from the orbital venous plexus and the serum was collected. Radioactivity in 0.1 mL of the serum was measured by a liquid scintillation counter. AUC0-30min calculated from the measured counts was considered as a phosphate absorption amount. The phosphate absorption inhibitory rate was determined from the AUC0-30min value according to the following equation.
Phosphate absorption inhibitory rate (%)=(1−Phosphate absorption count of compound-administered group/Phosphate absorption count of control group)×100
As a result, it was confirmed that several compounds of the formula (I) have an intestinal phosphate absorption inhibitory action. With the several compounds of the formula (I), the phosphate absorption inhibitory rates at a pharmacological evaluation dose of 3 mg/kg are shown in Table 2.

SMILES	inhibition at 1 µM (rat NPT-IIb)	inhibition in vivo at 3 mg/kg [1]	melting point
CCN(C1(C(=O)O)CC1)S(=O)(=O)c1cccc(C(=O)Nc2sc3c(c2C(=O)Nc2ccc(CCc4ccc(C(=O)O)cc4)cc2)CCCC3)c1 [Example 14, 4-{2-[4-({[2-({3-[(1-carboxycyclopropyl)(ethyl)sulfamoyl]benzoyl}amino)-4,5,6,7-tetrahydro-1-benzothiophen-3-yl]carbonyl}amino)phenyl]ethyl}benzoic acid]	71%	47%	254.7 °C
CCN([C@H]1CC[C@H](C(=O)O)CC1)S(=O)(=O)c1cccc(C(=O)Nc2sc3c(c2C(=O)Nc2ccc(CCCc4ccc(C(=O)O)cc4)cc2)CCCC3)c1 [Example 23, 4-{3-[4-({[2-({3-[(trans-4-carboxycyclohexyl)(ethyl)sulfamoyl]benzoyl}amino)-4,5,6,7-tetrahydro-1-benzothiophen-3-yl]carbonyl}amino)phenyl]propyl}benzoic acid]	86%	≥ 60%	178.5 °C
CCCN([C@H]1CC[C@H](C(=O)O)CC1)S(=O)(=O)c1cccc(C(=O)Nc2sc3c(c2C(=O)Nc2ccc(CCCc4ccc(C(=O)O)cc4)cc2)CCCC3)c1 [Example 102]	87%	≥ 60%	
CCOC(=O)CN(C1CC1)S(=O)(=O)c1cccc(C(=O)Nc2sc3c(c2C(=O)Nc2ccc(CCc4ccc(C(=O)OC)cc4)cc2)CCCC3)c1 [Example 6, methyl 4-{2-[4-({[2-({3-[cyclopropyl(2-ethoxy-2-oxoethyl)sulfamoyl]benzoyl}amino)-4,5,6,7-tetrahydro-1-benzothiophen-3-yl]carbonyl}amino)phenyl]ethyl}benzoate]			186.8 °C
CN(CCC(=O)O)S(=O)(=O)c1cccc(C(=O)Nc2sc3c(c2C(=O)Nc2ccc(CCc4ccc(C(=O)O)cc4)cc2)CCCC3)c1 [Example 10, 4-{2-[4-({[2-({3-[(2-carboxyethyl)(methyl)sulfamoyl]benzoyl}amino)-4,5,6,7-tetrahydro-1-benzothiophen-3-yl]carbonyl}amino)phenyl]ethyl}benzoic acid]	42%		230.3 °C
CN(CC(O)CO)S(=O)(=O)c1cccc(C(=O)Nc2sc3c(c2C(=O)Nc2ccc(CCc4ccc(C(=O)O)cc4)cc2)CCCC3)c1 (centres unmarked) [Example 29, 4-{2-[4-({[2-({3-[(2,3-dihydroxypropyl)(methyl)sulfamoyl]benzoyl}amino)-4,5,6,7-tetrahydro-1-benzothiophen-3-yl]carbonyl}amino)phenyl]ethyl}benzoic acid]	51%		
O=C(O)c1ccc(CCc2ccc(NC(=O)c3c(NC(=O)c4cccc(S(=O)(=O)N(C5CC5)[C@H]5CC[C@@H](C(=O)O)CC5)c4)sc4c3CCCC4)cc2)cc1 [Example 5, 4-{2-[4-({[2-({3-[(cis-4-carboxycyclohexyl)(cyclopropyl)sulfamoyl]benzoyl}amino)-4,5,6,7-tetrahydro-1-benzothiophen-3-yl]carbonyl}amino)phenyl]ethyl}benzoic acid]	87%		
O=C(O)CCCCN(C1CC1)S(=O)(=O)c1cccc(C(=O)Nc2sc3c(c2C(=O)Nc2ccc(CCc4ccc(C(=O)O)cc4)cc2)CCCC3)c1 [Example 34, 4-{2-[4-({[2-({3-[(4-carboxybutyl)(cyclopropyl)sulfamoyl]benzoyl}amino)-4,5,6,7-tetrahydro-1-benzothiophen-3-yl]carbonyl}amino)phenyl]ethyl}benzoic acid]	80%	≥ 60%	220.1 °C
CC(=O)N1CCN(S(=O)(=O)c2cccc(C(=O)Nc3sc4c(c3C(=O)Nc3ccc(CCCc5ccc(C(=O)O)cc5)cc3)CCCC4)c2)CC1 [Example 109]	52%		
CC(C)N(C1(C(=O)O)CC1)S(=O)(=O)c1cccc(C(=O)Nc2sc3c(c2C(=O)Nc2ccc(CCc4ccc(C(=O)O)cc4)cc2)CCCC3)c1 [Example 17, 4-{2-[4-({[2-({3-[(1-carboxycyclopropyl)(isopropyl)sulfamoyl]benzoyl}amino)-4,5,6,7-tetrahydro-1-benzothiophen-3-yl]carbonyl}amino)phenyl]ethyl}benzoic acid]	75%		261.4 °C
CC(=O)N1CCN(S(=O)(=O)c2cccc(C(=O)Nc3sc4c(c3C(=O)Nc3ccc(CCc5ccc(C(=O)O)cc5)cc3)CCCC4)c2)CC1 [Example 27, 4-{2-[4-({[2-({3-[(4-acetylpiperazin-1-yl)sulfonyl]benzoyl}amino)-4,5,6,7-tetrahydro-1-benzothiophen-3-yl]carbonyl}amino)phenyl]ethyl}benzoic acid]	58%		241.4 °C
O=C(O)c1ccc(CCc2ccc(NC(=O)c3c(NC(=O)c4cccc(S(=O)(=O)N(C5CC5)[C@H]5CC[C@H](C(=O)O)CC5)c4)sc4c3CCCC4)cc2)cc1 [Example 4, 4-{2-[4-({[2-({3-[(trans-4-carboxycyclohexyl)(cyclopropyl)sulfamoyl]benzoyl}amino)-4,5,6,7-tetrahydro-1-benzothiophen-3-yl]carbonyl}amino)phenyl]ethyl}benzoic acid]	82%	≥ 60%	
CCOC(=O)C1(N(CC)S(=O)(=O)c2cccc(C(=O)Nc3sc4c(c3C(=O)Nc3ccc(CCc5ccc(C(=O)O)cc5)cc3)CCCC4)c2)CC1 [Example 70]	83%		
C[C@@]1(C(=O)O)CCCN1S(=O)(=O)c1cccc(C(=O)Nc2sc3c(c2C(=O)Nc2ccc(CCc4ccc(C(=O)O)cc4)cc2)CCCC3)c1 [Example 25, 1-[(3-{[3-({4-[2-(4-carboxyphenyl)ethyl]phenyl}carbamoyl)-4,5,6,7-tetrahydro-1-benzothiophen-2-yl]carbamoyl}phenyl)sulfonyl]-2-methylproline]	52%		
CC(C)N(Cc1cccc(C(=O)O)c1)S(=O)(=O)c1cccc(C(=O)Nc2sc3c(c2C(=O)Nc2ccc(CCc4ccc(C(=O)O)cc4)cc2)CCCC3)c1 [Example 58]	65%	≥ 60%	
CCN(c1ccc(C(=O)O)cc1)S(=O)(=O)c1cccc(C(=O)Nc2sc3c(c2C(=O)Nc2ccc(CCc4ccc(C(=O)O)cc4)cc2)CCCC3)c1 [Example 21]	85%		159.4 °C
